“And” between values parts separate entries of the source, which are not always exact repeats. Equal entries are not always repeated.
Molecular target: Nonstructural protein 3 (Zika virus, UniProt A0A024AXB9)
Assay: Functional biochemical assay to identify treatments for viral infectious disease that targets Zika NS2B-NS3 protease. Utilizing a direct enzyme activity measurement method, reading the fluorescence intensity is used to characterize the relative potency of inhibitors as IC50.
Set-up: species or system PRVABC59

Nonstructural protein 3, sequence (A0A024AXB9 whole entry): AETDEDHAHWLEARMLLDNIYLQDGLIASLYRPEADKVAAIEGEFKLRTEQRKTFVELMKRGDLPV

Structure (SMILES) | IC50
O=C(Cn1ccc2cccnc21)N1CC[C@H](c2c[nH]c3ccccc23)C1 | > 99.5 µM
NCc1cccc(NC(=O)C[C@@H](NC(=O)OCc2ccccc2)C2CCCCC2)c1 | > 99.5 µM and 56.7 µM
Cc1cc(C(=O)Nc2cccc(CN)c2)c2cnn(-c3ccc(F)cc3)c2n1 | 61.6 µM
O=C(/C=C/c1ccccc1)C(=O)N1CCOCC1 | > 198 µM
CNC(=O)[C@H](Nc1ccc2c(c1)C(=O)OC2)c1cc(Cl)cc2[nH]ncc12 | > 25 µM
NCc1cc(Cl)ccc1NS(=O)(=O)c1ccc(Oc2ccccc2Cl)cc1 | > 99.5 µM
O=C1Cc2c(cccc2C(=O)Nc2ccc3c(n2)CNC3)N1 | 1.42 µM
NCc1cccc(NC(=O)[C@@H](NC(=O)OCc2ccccc2)c2ccc(F)cc2F)c1 | > 99.5 µM
N[C@H](CO)c1cccc(NC(=O)c2cc(Cl)cc(NC(=O)OCc3ccccc3)c2)c1 | 57.4 µM
NCc1cccc(NC(=O)c2cccn3cc(CN4CCCC4)nc23)c1 | 16.4 µM
O=C1Cc2c(cccc2C(=O)N[C@H]2CCc3ncsc3C2)N1 | > 25 µM
NCc1cccc(NC(=O)c2nn(-c3ccccc3F)cc2Br)c1 | > 99.5 µM
Nc1n[nH]c2cc(C(=O)Nc3ccc4c(c3)CNC4)ccc12 | > 25 µM
NCc1cccc(NC(=O)[C@]2(NC(=O)OCc3ccccc3)COc3cc(Br)ccc32)c1 | > 99.5 µM
NCc1cccc(NC(=O)c2cc(Cl)cc(CN3CCOCC3)c2)c1 | 52.9 µM
NCc1cccc(NC(=O)[C@H](NC(=O)OCc2ccccc2)c2cccc(OC[C@H]3COCCO3)c2)c1 | > 99.5 µM
Cc1nc(C2CCN(Cc3c[nH]c4ccccc34)CC2)sc1C(=O)O | 99.3 µM
c1ccc2sc(C3CCN([C@H]4Cc5[nH]c6ccccc6c5C4)CC3)nc2c1 | > 99.5 µM
O=C(Nc1ccc2c(c1)CNC2)c1cc(Cl)ccc1-n1cnnn1 | 1.05 µM
c1ccc2c(CN3CCC(c4ccn[nH]4)CC3)c[nH]c2c1 | 66.2 µM
O=C(O)c1ccsc1NS(=O)(=O)c1ccc(Oc2ccccc2Cl)cc1 | 27.8 µM
O=C(O)Cn1ccnc(N2CC[C@@H](CO)C2)c1=O | > 99.5 µM
NCc1cc(CO)cc([C@H]2C[C@@H]2c2cc(Cl)cc(NC(=O)OCc3ccccc3)c2)c1 | 10.4 µM
O=C1Cc2c(cccc2C(=O)Nc2ccc3c(c2)CNC3)N1 | 0.404 µM and 1.27 µM
COc1cc(Cl)cc(C(=O)Nc2ccc3c(c2)CNC3)c1 | 0.26 µM
CCCC[C@H](NC(C)=O)C(=O)N[C@H](C(=O)Nc1ccc(C(N)=O)cc1)c1ccc(OCc2ccccc2)cc1 | > 99.5 µM

Structure (SMILES) | IC50
CN(C)c1nc(-c2cc(F)cc(C(=O)Nc3ccc4c(c3)CNC4)c2)cs1 | 0.146 µM
Cc1c(C(=O)Nc2cc(C(=O)N3CC(C(N)=O)C3)ccn2)cc(C2CC2)n1C | > 25 µM
NCc1cccc(NC(=O)C[C@@H](NC(=O)OCc2ccccc2)c2ccc(OCc3ccccc3)cc2)c1 | 6.93 µM
N[C@@H]1CC[C@H](NC(=O)[C@@H](NC(=O)OCc2ccccc2)c2ccc(OCc3ccccc3)cc2)C1 | > 99.5 µM
C[C@H]1CC[C@H](CS(=O)(=O)N[C@H](C(=O)Nc2cccc(CN)c2)c2ccc(OCc3ccccc3)cc2)CC1 | 15.4 µM
O=C(c1cc(Cl)ccc1NS(=O)(=O)c1ccc(Oc2ccccc2Cl)cc1)N1CCC[C@@H]1CO | > 99.5 µM
CNC(=O)[C@]1(Nc2ccc3c(c2)CNC3)C(=O)Nc2ccccc21 | > 99.5 µM
NC[C@H]1OCCc2sc(C(=O)Nc3cc(-c4cccnc4)ccn3)cc21 | > 25 µM
CCn1cc(C(=O)NC)nc(N2CC[C@@H](CO)C2)c1=O | > 99.5 µM
O=C(Nc1ccc2c(c1)CNC2)c1nc2ccccc2s1 | > 25 µM
CCn1cc(-c2cnc3ccnn3c2)nc(N2CC[C@@H](CO)C2)c1=O | > 99.5 µM
NCc1cccc(NC(=O)[C@@H](NC(=O)OCc2ccccc2)c2ccc(-c3cccc4nonc34)cc2)c1 | 6.42 µM
CN(C)Cc1cc(CNC(=O)[C@@H](NC(=O)OCc2ccccc2)c2ccc(OCc3ccccc3)cc2)ccc1F | > 99.5 µM
Cc1ccc2[nH]ncc2c1C(=O)Nc1ccc2c(c1)CNC2 | > 25 µM
CCn1c(=O)c(N2C[C@H]3OCCN(C(C)=O)[C@H]3C2)nc2ccccc21 | > 99.5 µM
Cc1noc(C)c1C(=O)N[C@@H](C(=O)Nc1cccc(CN)c1)c1ccc(OCc2ccccc2)cc1 | > 99.5 µM
CCc1onc(-c2ccc(Br)cc2)c1C(=O)Nc1cccc(CN)c1 | > 99.5 µM
O=C(N[C@H](C(=O)NCc1cccc(CC(F)(F)F)c1)c1ccc(OCc2ccccc2)cc1)OCc1ccccc1 | > 99.5 µM
N#C[C@H](Nc1ccc2c(c1)CNC2)c1cc(Cl)cc(C2CC2)c1 | 0.174 µM
COC(=O)C(C)(C)NC(=O)[C@H](Nc1ccc2c(c1)CNC2)c1cc(Cl)cc(C2CC2)c1 | 8.99 µM
NCc1cccc(NC(=O)[C@@H](NC(=O)OCc2ccccc2)c2cccc(OCC3CCC3)c2)c1 | 27.3 µM
Clc1ccc(-c2cc(CN3CCC(c4cscn4)CC3)[nH]n2)cc1 | > 99.5 µM
O=C(Nc1cc(Cl)cc(C(=O)Nc2ncc([C@H]3CCCN3)s2)c1)OCc1ccccc1 | > 99.5 µM
Cc1ccc(COc2ccc(S(=O)(=O)Nc3ccc(Cl)cc3C(=O)O)cc2)cc1 | 17.3 µM
NCc1cccc(NC(=O)c2ccc(OCC(F)(F)F)c(NC(=O)OCc3ccccc3)c2)c1 | 48.7 µM
O=C(O)c1cc2cc(-c3cccc([C@H]4CCOC4)n3)ccc2[nH]1 | > 99.5 µM

Structure (SMILES) | IC50
CC(C)NC(=O)[C@H](Nc1ccc2c(c1)CNC2)c1cc(F)cc2[nH]ccc12 | 1.03 µM
Cc1c(C(=O)Nc2cc(Br)c3c(c2)COC3)cc(C2CC2)n1C | > 25 µM
Cc1ccc(S(=O)(=O)CNC(=O)[C@H](Nc2ccc3c(c2)CNC3)c2cc(Cl)cc3[nH]ncc23)cc1 | 0.749 µM
O=C(/C=C/c1ccc(N2CCNCC2)cc1)C(=O)N1CCOCC1 | > 99.5 µM
O=S(=O)(Cc1nnc(Cc2ccccc2)o1)c1ccc(O)cc1 | > 99.5 µM
CC(C)CC(=O)N1CCC([C@H](NC(=O)OCc2ccccc2)C(=O)Nc2cccc(CN)c2)CC1 | > 99.5 µM
NCc1cccc(NC(=O)[C@H](NS(=O)(=O)Cc2ccccc2)c2ccc(OCc3ccccc3)cc2)c1 | 64.5 µM
CCn1c(=O)c(N2CC[C@@]3(CCCN3C)C2)nc2ccccc21 | > 99.5 µM
Cc1cnn(-c2cccc(-c3cccc(C4(CN)CC4)c3)c2)c1 | > 99.5 µM
O=C(N[C@@H](C(=O)NCc1ccncc1)c1ccc(OCc2ccccc2)cc1)OCc1ccccc1 | > 99.5 µM
COC[C@@H](C)CNC(=O)c1cc(Cl)ccc1NS(=O)(=O)c1ccc(Oc2ccccc2Cl)cc1 | > 99.5 µM
Cc1ccc(-c2nc(NC(=O)[C@H](NC(=O)OCc3ccccc3)c3ccc(OCc4ccccc4)cc3)sc2CN(C)C)cc1 | > 99.5 µM
CCN1C(=O)CCc2cc(NS(=O)(=O)c3ccc(Cl)cc3C(=O)O)ccc21 | > 99.5 µM
CC[C@H](Cc1nnn[nH]1)c1ccc(NC(=O)c2cc(Cl)cc(Cl)c2OC)cc1 | > 99.5 µM
NCc1ccc(F)c(NC(=O)c2cc(Cl)cc(NC(=O)OCc3ccccc3)c2)c1 | 4.35 µM
NC(=O)c1ccc(N2CC[C@@H](CO)C2)cc1 | > 99.5 µM
N#Cc1cc(Cl)cc(-c2ccc3[nH]c(C(=O)O)cc3c2)c1 | > 99.5 µM
O=C(O)c1cc(Cl)ccc1S(=O)(=O)Nc1ccc(F)c(N2CCNC2=O)c1 | > 99.5 µM
O=C(NCC(F)F)[C@H](Nc1ccc2c(c1)CNC2)c1cc(F)cc2[nH]ccc12 | 0.199 µM
O=C(Nc1ccccc1)Oc1ccccc1 [PHENYL PHENYLCARBAMATE] | > 100 µM
Cc1c(C(=O)Nc2cc(C(=O)N3CC4(CCO4)C3)ccn2)cc(C2CC2)n1C | > 25 µM
NCc1cc(NC(=O)c2cc(Cl)cc(NC(=O)OCc3ccccc3)c2)cc(-c2ccc(OCC(=O)O)nc2)c1 | > 25 µM
O=Cc1cc(Cl)cc(NC(=O)OCc2ccccc2)c1 | > 99.5 µM
N#Cc1ccc2[nH]cc(CN3CCC(c4cscn4)CC3)c2c1 | 17.8 µM
CCCn1nc(C)c2c(C(=O)Nc3cccc(CN)c3)cc(C)nc21 | > 99.5 µM
Cc1[nH]c2c(C(=O)Nc3ccc4c(c3)CNC4)cccc2c1C | 1.19 µM

Structure (SMILES) | IC50
c1ccc2sc(C3CCN(CCc4c[nH]c5ccccc45)CC3)nc2c1 | > 99.5 µM
CCCN1C(=O)[C@](Nc2ccc3c(c2)CNC3)(C(=O)NC)c2ccccc21 | > 25 µM
NCc1cccc(NC(=O)[C@H]2[C@H]3CCCCC[C@H]3[C@H]2NC(=O)OCc2ccccc2)c1 | 41.3 µM and 51.2 µM and 13 µM and 11.9 µM
O=C(Nc1ccc2c(c1)CNC2)c1cc(F)cc2[nH]c(-c3cnccc3O)nc12 | 0.13 µM
Cn1nccc1-c1cc(NC(=O)c2cc(F)cc3[nH]ncc23)cc2c1CNC2 | 0.042 µM and 0.029 µM
CCOC(=O)N1CCC[C@H]1c1cccc(-c2ccc3[nH]c(C(=O)O)cc3c2)c1 | > 99.5 µM
COC(=O)c1cc(Cl)ccc1NS(=O)(=O)c1ccc(O)cc1 | > 99.5 µM
N[C@H]1Cc2ccc(NC(=O)c3cc(Cl)cc4[nH]ncc34)cc2C1 | 0.488 µM
C[C@@H](N)c1cc(Cl)cc(C(=O)Nc2cccc(CN)c2)c1 | 3.42 µM
c1ccc2c(CN3CCN(c4ccncc4)CC3)c[nH]c2c1 | 98 µM
Cc1cc(C(=O)Nc2cccc(CN)c2)c2nc(C)n(C)c2n1 | > 99.5 µM
O=C(Nc1ccc2c(c1)CNC2)c1cc(Cl)cc(-n2cccc2)c1 | 0.091 µM and 0.084 µM
Cc1cc(C(=O)Nc2cccc(CN)c2)cc(NCC(F)(F)F)n1 | > 99.5 µM
NS(=O)(=O)c1cc(Cl)cc(C(=O)Nc2ccc3c(c2)CNC3)c1 | 1.08 µM
CCc1cc(COc2ccc(S(=O)(=O)Nc3ccc(Cl)cc3C(=O)O)cc2)no1 | > 99.5 µM
NCc1cccc(NC(=O)[C@@H](NC(=O)OCc2ccccc2)c2cccc(Br)c2)c1 | 64.4 µM
CCCNC(=O)[C@H](Nc1ccc2c(c1)CNC2)c1cc(Cl)cc2[nH]ncc12 | 0.036 µM and 0.031 µM
NCc1cccc(NC(=O)[C@@H](N)c2ccc(OCc3ccccc3)cc2)c1 | > 99.5 µM
O=C(Nc1ccc2c(c1)CNC2)c1cc(F)cc(-c2cnc(C3CC3)s2)c1 | 0.056 µM and 0.043 µM
CC(=O)N[C@H](C(=O)N[C@H]1C(=O)O[C@H]1C)c1ccc(OCc2ccccc2)cc1 | > 99.5 µM
N=C(N)NCCc1ccc(NC(=O)Oc2ccccc2)cc1 | 87.4 µM and 21.5 µM
NCc1cc(/C=C/C(=O)O)cc(NC(=O)c2cc(Cl)cc(NC(=O)OCc3ccccc3)c2)c1 | 3.17 µM
CC(C)Nc1nc2ccc(C(=O)Nc3ccc4cn[nH]c4n3)cc2[nH]1 | > 99.5 µM
COC[C@H](NC(=O)c1cc(Cl)cc(NC(=O)OCc2ccccc2)c1)c1nnn[nH]1 | > 99.5 µM

From ChEMBL document CHEMBL5604062, “ASAP - ZIKV NS2B-NS3 protease fluorescence dose response” (2024)
